Test system: A549 cells
Assay: Growth inhibition of siRNA-transfected A549 cells, SYBR Green I DNA content
Type: cell-based, human
Conditions: 10 nM siRNA; DNA content 96 hours after transfection
Experimental: A549 cells (human lung cancer cell line; ATCC No. CCL-185), SK-MeI-5 cells (human melanoma cell line; ATCC No. HTB-70), MCF-7 cells (human adenocarcinoma cell line; ATCC No. HTB-22), HCT-116 cells (colorectal carcinoma; ATCC CCL-247) and HCT-116 p53 null cells (derived from ATCC No. CCL-247; Bunz et al., Science 282:1497-1501, 1998) were cultured in RPMI 1640 medium with 10% v/v heat-inactivated fetal calf serum (FCS). Cells were seeded at a density of 5×10^4 cells/cm^2 in multi-well tissue culture plates. Sequences of Stealth™ siRNA duplexes (Invitrogen) targeting human ribonucleotide reductase subunit 1 (SEQ ID NO: 22) and subunit 2 (SEQ ID NO; 38) are given in SEQ ID NO: 4830-4832 (DNA), and SEQ ID NO: 5136-5138 (RNA) for RRM1, and SEQ ID NO: 5306-5308 (DNA), and SEQ ID NO: 5303-5305 (RNA) for RRM2. siRNAs were transfected at different concentrations into cells using Lipofectamine™ RNAiMAX transfection reagent (Invitrogen). Non-specific siRNA (SEQ ID NO: 4804 and 4805 (DNA), and SEQ ID NO: 5301 and 5302 (RNA)) were used as controls. The cellular DNA content was measured using a SYBR Green I-based fluorometric assay at 24, 48, 72 and 96 hours after transfection (120 hours for the MCF-7 cells), as follows. At the indicated time points following reverse transfection, cells were harvested and frozen at −80° C. overnight. Cells were thawed and cell lysis buffer (phosphate-buffered saline (PBS) containing 1% Triton X-100, pH 7) and SYBR Green I (1:10^5 V/V; Invitrogen) was added to the wells and incubated overnight in the dark at 4° C.
The following day, cell lysates were mixed thoroughly, and DNA fluorescence was measured with a Wallac Victor^2 plate reader (Turku, Finland) set at an excitation frequency of 485 nm and measuring emission at 535 nm.
To determine the duration of the knock-down effect of RRM1-targeting siRNA, A549 cells were reverse transfected with 1 or 10 nM RRM1-3 (SEQ ID NO: 4832 (DNA, and SEQ ID NO: 5138 (RNA)) or control siRNA (SEQ ID NO: 4804 (DNA), and SEQ ID NO: 5301 (RNA)), and growth followed over time. Growth inhibition was measured daily as described above for up to ten days. RRM1-3-mediated RRM1 silencing inhibited growth for at least 10 days post-transfection at both 1 and 10 nM (FIG. 11).
siRNA-mediated inhibition of cancer cell growth was determined in A549 cells as follows. A549 cells (human lung cancer cell line; ATCC No. CCL-185) were cultured in RPMI 1640 medium with 10% v/v heat-inactivated fetal calf serum. Cells were seeded at a density of 5×10^3 cells/cm^2 in multi-well tissue culture plates. Stealth™ siRNA duplexes (Invitrogen) targeting genes involved in cancer energy and metabolism pathways and listed in Table 9, were transfected at 10 nM into cells using Lipofectamine™ RNAiMAX transfection reagent (Invitrogen). Non-specific siRNA (SEQ ID NO: 4804 and 4805 (DNA), and SEQ ID NO: 5301 and 5302 (RNA)) were used as controls. The cellular DNA content was measured using a SYBR Green I-based fluorometric assay at 96 hours after transfection. The cells were harvested and frozen at −80° C. overnight. Cells were thawed and cell lysis buffer (phosphate-buffered saline (PBS) containing 1% Triton X-100, pH 7) and SYBR Green I (1:10^5 v/v; Invitrogen) was added to the wells and incubated overnight in the dark at 4° C. The following day, cell lysates were mixed thoroughly, and DNA fluorescence was measured with a Wallac Victor^2 plate reader (Turku, Finland) set at an excitation frequency of 485 nm and measuring emission at 535 nm.
Three different siRNAs were tested for each target gene. The average fluorescence units from three replicate wells, representing the amount of DNA per well, were used to determine the effect on growth inhibition. The results are given in Table 10 (energy and metabolism gene targets) and Table 11 (transporter gene targets).
siRNA-mediated RNAi was also determined on a panel of different cell lines. […]

Row | Substance | Growth Inhibition in A549 cells
1 | SEQ ID NO: 4818: siRNA targeting PFKL (chain 1 AATGTCTGTCTTCATCTTCTCCGTC; chain 2 AAUGUCUGUCUUCAUCUUCUCCGUC; chemistry not given here; one strand in two spellings) | − (no growth inhibition with any siRNA)
2 | SEQ ID NO: 4819: siRNA targeting PFKL (chain 1 TAGTAGTCATGGCACTTCTCGTTCC; chain 2 UAGUAGUCAUGGCACUUCUCGUUCC; chemistry not given here; one strand in two spellings) | − (no growth inhibition with any siRNA)
3 | SEQ ID NO: 4820: siRNA targeting PFKL (chain 1 TAGTCTCTGAGATCTTACCTTCCGC; chain 2 UAGUCUCUGAGAUCUUACCUUCCGC; chemistry not given here; one strand in two spellings) | − (no growth inhibition with any siRNA)
4 | SEQ ID NO: 4821: siRNA targeting PRPS1 (chain 1 AATTGTCATTGATTTCGCCACAACC; chain 2 AAUUGUCAUUGAUUUCGCCACAACC; chemistry not given here; one strand in two spellings) | − (no growth inhibition with any siRNA)
5 | SEQ ID NO: 4822: siRNA targeting PRPS1 (chain 1 TCCACATTCAGCCTGTCTGCAATGG; chain 2 UCCACAUUCAGCCUGUCUGCAAUGG; chemistry not given here; one strand in two spellings) | − (no growth inhibition with any siRNA)
6 | SEQ ID NO: 4823: siRNA targeting PRPS1 (chain 1 TCAAGATGGCATAAACTCTGGTGGC; chain 2 UCAAGAUGGCAUAAACUCUGGUGGC; chemistry not given here; one strand in two spellings) | + (inhibits by at least 50%)
7 | SEQ ID NO: 4824: siRNA targeting CPS1 (chain 1 ATATGATGCAGCCACCACATGCCTC; chain 2 AUAUGAUGCAGCCACCACAUGCCUC; chemistry not given here; one strand in two spellings) | ++ (inhibits by at least 75%)
8 | SEQ ID NO: 4825: siRNA targeting CPS1 (chain 1 AATACCTTCACCAAAGCAAGCCACC; chain 2 AAUACCUUCACCAAAGCAAGCCACC; chemistry not given here; one strand in two spellings) | − (no growth inhibition with any siRNA)
9 | SEQ ID NO: 4826: siRNA targeting CPS1 (chain 1 TTCCCAAGCATGGTACCCTTATCCC; chain 2 UUCCCAAGCAUGGUACCCUUAUCCC; chemistry not given here; one strand in two spellings) | − (no growth inhibition with any siRNA)
10 | SEQ ID NO: 4828: siRNA targeting CAD (chain 1 TGTCTGAGAAGCCAAGACACTTGGC; chain 2 UGUCUGAGAAGCCAAGACACUUGGC; chemistry not given here; one strand in two spellings) | − (no growth inhibition with any siRNA)
11 | SEQ ID NO: 4829: siRNA targeting CAD (chain 1 AACTGTGTCAATCTGTTTCACTGCT; chain 2 AACUGUGUCAAUCUGUUUCACUGCU; chemistry not given here; one strand in two spellings) | + (inhibits by at least 50%)
12 | SEQ ID NO: 4836: siRNA targeting DHFR (chain 1 AATATCTGAATTCATTCCTGAGCGG; chain 2 AAUAUCUGAAUUCAUUCCUGAGCGG; chemistry not given here; one strand in two spellings) | + (inhibits by at least 50%)

Reference: patent US20080145313A1, “Compositions and Methods for the Treatment and Prevention of Neoplastic Disorders” (Genesis Research & Development Corporation Limited, priority 2006, published 2008)
